Experimental data from ChEMBL document CHEMBL5108016, “Design, synthesis and neurite outgrowth activity of novel ganglioside GM1 derivatives by remodeling of the fatty acid moiety” (Eur J Med Chem, 2022).
Active and inactive are the calls of the source. The calls are words filed in the database; no cut-off is given here.

How the values were obtained:
[1] = Cytotoxicity against mouse Neuro2a cells assessed as inhibition of cell growth incubated for 24 hrs by MTT assay; type: toxicity, cell-based, N2a
N2a [2] = assay: Induction of neurite outgrowth in mouse Neuro2a cells assessed as increase in percentage of neurite-bearing cells at 25 uM incubated for 24 hrs; type: functional, cell-based
N2a [3] = assay: Induction of neurite outgrowth in mouse Neuro2a cells assessed as increase in neurite-number per cells at 25 uM incubated for 24 hrs; type: functional, cell-based
N2a [4] = assay: Induction of neurite outgrowth in mouse Neuro2a cells assessed as increase in neurite-length per cells at 25 uM incubated for 24 hrs; type: functional, cell-based
N2a [5] = assay: Induction of neurite outgrowth in mouse Neuro2a cells assessed as increase in GAP43 protein expression at 25 uM incubated for 24 hrs by immunoblotting analysis; type: functional, cell-based

Compound | IC50 at 24 h [1] | Activity (N2a [2]) | Activity (N2a [3]) | Activity (N2a [4]) | Activity (N2a [5])
CCCCCCCCCCCCCCC/C=C/[C@@H](O)[C@H](CO[C@@H]1O[C@H](CO)[C@@H](O[C@@H]2O[C@H](CO)[C@H](O[C@@H]3O[C@H](CO)[C@H](O)[C@H](O[C@@H]4O[C@H](CO)[C@H](O)[C@H](O)[C@H]4O)[C@H]3NC(C)=O)[C@H](O[C@]3(C(=O)O)C[C@H](O)[C@@H](NC(C)=O)[C@@H]([C@@H](O)[C@H](O)CO)O3)[C@H]2O)[C@H](O)[C@H]1O)NC(=O)CCCCCCCCCCCCCCCCC | > 200 µM | – | – | – | –
CCCCCC/C=C\CCCCCCCC(=O)N[C@@H](CO[C@@H]1O[C@H](CO)[C@@H](O[C@@H]2O[C@H](CO)[C@H](O[C@@H]3O[C@H](CO)[C@H](O)[C@H](O[C@@H]4O[C@H](CO)[C@H](O)[C@H](O)[C@H]4O)[C@H]3NC(C)=O)[C@H](O[C@]3(C(=O)O)C[C@H](O)[C@@H](NC(C)=O)[C@@H]([C@@H](O)[C@H](O)CO)O3)[C@H]2O)[C@H](O)[C@H]1O)[C@H](O)/C=C/CCCCCCCCCCCCCCC | > 200 µM | Active | Active | Active | –
CCCCCCCC/C=C\CCCCCCCC(=O)N[C@@H](CO[C@@H]1O[C@H](CO)[C@@H](O[C@@H]2O[C@H](CO)[C@H](O[C@@H]3O[C@H](CO)[C@H](O)[C@H](O[C@@H]4O[C@H](CO)[C@H](O)[C@H](O)[C@H]4O)[C@H]3NC(C)=O)[C@H](O[C@]3(C(=O)O)C[C@H](O)[C@@H](NC(C)=O)[C@@H]([C@@H](O)[C@H](O)CO)O3)[C@H]2O)[C@H](O)[C@H]1O)[C@H](O)/C=C/CCCCCCCCCCCCC | > 200 µM | Active | Active | Active | Active
CCCC/C=C\CCCCCCCC(=O)N[C@@H](CO[C@@H]1O[C@H](CO)[C@@H](O[C@@H]2O[C@H](CO)[C@H](O[C@@H]3O[C@H](CO)[C@H](O)[C@H](O[C@@H]4O[C@H](CO)[C@H](O)[C@H](O)[C@H]4O)[C@H]3NC(C)=O)[C@H](O[C@]3(C(=O)O)C[C@H](O)[C@@H](NC(C)=O)[C@@H]([C@@H](O)[C@H](O)CO)O3)[C@H]2O)[C@H](O)[C@H]1O)[C@H](O)/C=C/CCCCCCCCCCCCC | < 25 µM | – | – | – | –
